Laboratory results taken from patent publication US8173654B2, “Triazolopyridazine compounds” (Janssen Pharmaceutica N.V., priority 2005, dated 2012).

Experiments:
c-Met [1] = molecular target: T1, c-Met (Homo sapiens, UniProt P08581); assay: Delfia autophosphorylation kinase assay on the c-Met; format: biochemical; parameters: The purified His6 tagged cytoplasmic domain of c-Met was diluted to a concentration of 500 ng/ml; host or cells: Sf9 insect cells (baculovirus, pFastBacHTa); settings: His6 tagged cytoplasmic domain of c-Met, 1 μM ATP; read-out: cMet Delfia autophos IC-50
Procedure: A DELFIA time resolved fluorescence assay was developed for screening of compounds that decreases the autophosphorylation thus the kinase activity of c-Met. The DELFIA assay is non-radioactive. The autophosphorylation of the c-Met is measured by an anti-phosphotyrosine antibody coupled to an Europium tag.
A major advantage of this format is that it allowed for the development of an autophosphorylation assay using Ni-chelate plates which bind the hexa-his tag on the recombinant Met kinase. The autophosphorylation assay allows one to use a known substrate, Met kinase itself, for the phosphorylation.
The assay procedure for screening is as follows. The purified His6 tagged cytoplasmic domain of c-Met was diluted to a concentration of 500 ng/ml in enzyme dilution buffer (50 mM Tris-HCl, pH8.0, 0.1% BSA) and dispensed to assay plates at a volume of 50 μl per well. Black opaque HisGrab Nickel coated 96 well plates (Pierce, Rockford, Ill.) were selected for use. Next, 2.5 μl of compound in 40% DMSO was added to test wells, 2.5 μl of 40% DMSO only was added to the negative control wells. The autophosphorylation reaction was initiated upon the addition of 50 μl of reaction buffer, 50 mM Tris-HCl, pH 8.0, 10 mM MgCl2, 0.1 mM Na3VO4, 1 mM DTT, 1 μM ATP. Plates were incubated at room temperature for 1 hour followed by 2 washes with 200 μl/well of PBS. Europium conjugated anti-phosphotyrosine antibody, Eu-PY20 from Perkin Elmer was diluted to 50 ng/ml in Delfia AB buffer (Perkin Elmer, Boston, Mass.), added to the 96 well assay plates at a volume of 100 μl/well, and incubated at room temperature for 2 hours. Assay plates were then washed 4 times each with 200 μl/well of Delfia wash buffer (Perkin Elmer). After the final wash 150 μl of Delfia Enhancement solution (Perkin Elmer) was added to each well of the assay plate and incubated at room temperature for 1 hour. Plates were read on an LJL Analyst instrument (Molecular Devices; Sunnyvale, Calif.) with filter settings of 360 excitation, 620 emission, and 410 dichroic. IC50 values were calculated using Graphpad Prism software (Graphpad Software; San Diego, Calif.).
Target sequence in this assay (P08581 956-1390 limits assumed): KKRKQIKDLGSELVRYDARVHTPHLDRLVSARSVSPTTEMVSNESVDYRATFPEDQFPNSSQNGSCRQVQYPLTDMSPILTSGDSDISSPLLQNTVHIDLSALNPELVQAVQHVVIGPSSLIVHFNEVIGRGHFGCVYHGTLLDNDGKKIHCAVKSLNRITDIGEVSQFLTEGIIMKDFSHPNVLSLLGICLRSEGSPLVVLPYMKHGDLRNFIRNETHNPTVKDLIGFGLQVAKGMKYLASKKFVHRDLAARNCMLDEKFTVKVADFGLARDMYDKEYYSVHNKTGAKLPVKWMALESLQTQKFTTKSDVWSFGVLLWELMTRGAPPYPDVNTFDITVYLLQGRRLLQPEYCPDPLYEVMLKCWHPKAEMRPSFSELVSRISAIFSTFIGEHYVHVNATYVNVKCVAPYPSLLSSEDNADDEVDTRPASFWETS

c-Met [2] = molecular target: T1, c-Met; assay: Cell based ELISA assay for HGF stimulated c-Met phosphorylation in S114 cells; parameters: expressed in transfected cells; host or cells: S114 (murine NIH 3T3 derived); settings: read-out: c-Met Cell ELISA IC-50
Procedure: A cell based ELISA assay was developed to evaluate the ability of compounds to inhibit HGF stimulated c-Met phosphorylation in cells.
S114 cells were seeded to a 96 well tissue culture treated dish at a concentration of 5×10^4 per well. After a 16-20 hour incubation, culture medium was removed and replaced with serum free medium supplemented with 0.5% BSA. Test compound was then added and incubated with the cells for 60 minutes, followed by the addition of 1 μl HGF at […] for 15 minutes. […] Following another 1 hour incubation at room temperature the plates were washed three times with Delfia wash buffer (Perkin Elmer). After the final wash, […] of Delfia enhancer solution (Perkin Elmer) was added and allowed to incubate for 60 minutes. Plates were read on an LJL Analyst instrument (Molecular Devices; Sunnyvale, Calif.) with filter settings of 360 excitation, 620 emission, and 410 dichroic. IC50 values were calculated using Graphpad Prism software (Graphpad Software; San Diego, Calif.).
Target sequence in this assay (P08581 25-1390): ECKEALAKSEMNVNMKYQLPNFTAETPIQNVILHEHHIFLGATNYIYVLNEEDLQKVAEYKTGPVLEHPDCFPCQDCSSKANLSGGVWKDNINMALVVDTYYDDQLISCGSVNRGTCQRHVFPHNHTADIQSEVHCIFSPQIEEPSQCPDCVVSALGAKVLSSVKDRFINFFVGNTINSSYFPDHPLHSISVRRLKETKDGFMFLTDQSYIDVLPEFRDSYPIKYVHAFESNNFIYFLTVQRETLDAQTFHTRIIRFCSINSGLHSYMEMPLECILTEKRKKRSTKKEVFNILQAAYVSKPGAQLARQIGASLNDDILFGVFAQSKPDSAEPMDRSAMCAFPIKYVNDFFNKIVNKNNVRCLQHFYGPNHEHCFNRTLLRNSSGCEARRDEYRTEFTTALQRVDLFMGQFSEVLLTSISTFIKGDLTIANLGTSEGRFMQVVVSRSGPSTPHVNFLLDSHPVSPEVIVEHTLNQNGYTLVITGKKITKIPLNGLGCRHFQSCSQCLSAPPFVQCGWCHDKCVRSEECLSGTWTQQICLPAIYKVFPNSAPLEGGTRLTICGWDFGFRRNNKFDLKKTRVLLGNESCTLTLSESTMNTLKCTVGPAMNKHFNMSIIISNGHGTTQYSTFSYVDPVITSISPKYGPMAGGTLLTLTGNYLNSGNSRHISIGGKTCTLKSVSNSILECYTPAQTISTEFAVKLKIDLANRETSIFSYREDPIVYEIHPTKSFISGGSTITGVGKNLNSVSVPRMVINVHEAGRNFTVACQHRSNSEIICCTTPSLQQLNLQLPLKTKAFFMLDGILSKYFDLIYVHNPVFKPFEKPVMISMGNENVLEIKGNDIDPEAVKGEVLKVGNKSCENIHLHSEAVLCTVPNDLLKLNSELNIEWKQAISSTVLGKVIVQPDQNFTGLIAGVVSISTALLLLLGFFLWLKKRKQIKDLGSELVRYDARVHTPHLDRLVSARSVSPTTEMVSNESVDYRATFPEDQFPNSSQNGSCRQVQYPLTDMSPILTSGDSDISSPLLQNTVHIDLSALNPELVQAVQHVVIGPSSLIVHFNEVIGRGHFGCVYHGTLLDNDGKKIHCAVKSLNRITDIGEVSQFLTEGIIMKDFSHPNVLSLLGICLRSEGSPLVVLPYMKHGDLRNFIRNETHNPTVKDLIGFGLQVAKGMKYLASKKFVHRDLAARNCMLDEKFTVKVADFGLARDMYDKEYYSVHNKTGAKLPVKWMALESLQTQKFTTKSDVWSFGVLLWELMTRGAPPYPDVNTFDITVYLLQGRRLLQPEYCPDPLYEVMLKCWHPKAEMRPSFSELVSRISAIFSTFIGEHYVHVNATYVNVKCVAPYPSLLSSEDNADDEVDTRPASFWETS

Structure (SMILES) | IC50 (c-Met [1]) [nM] | IC50 (c-Met [2]) [nM]
c1cc2c(cc1Cc1nnc3ccc(-c4ccc(CN5CCOCC5)s4)nn13)CCO2 [Example 42, 3-(2,3-Dihydro-benzofuran-5-ylmethyl)-6-(5-morpholin-4-ylmethyl-thiophen-2-yl)-[1,2,4]triazolo[4,3-b]pyridazine] | 13 | 406
CS(=O)(=O)n1cc(-c2ccc3nnc(Cc4ccc5ncccc5c4)n3n2)cn1 [Example 15, 6-[6-(1-Methanesulfonyl-1H-pyrazol-4-yl)-[1,2,4]triazolo[4,3-b]pyridazin-3-ylmethyl]-quinoline] | 2 | 88
c1cnc2ccc(Cc3nnc4ccc(-c5cnc6ccccc6c5)nn34)cc2c1 [Example 65, 6-(6-Quinolin-3-yl-[1,2,4]triazolo[4,3-b]pyridazin-3-ylmethyl)-quinoline] | 0.3 | 2
Oc1ccc(Cc2nnc3ccc(-c4nccs4)nn23)cc1 [Example 18, 4-(6-Thiazol-2-yl-[1,2,4]triazolo[4,3-b]pyridazin-3-ylmethyl)-phenol] | 10 | 86
CN(C)CCCNC(=O)c1ccc(-c2ccc3nnc(Cc4ccc(O)cc4)n3n2)s1 [Example 49, 5-[3-(4-Hydroxy-benzyl)-[1,2,4]triazolo[4,3-b]pyridazin-6-yl]-thiophene-2-carboxylic acid (3-dimethylamino-propyl)-amide] | 2.1 | 343
C#Cc1cc(-c2ccc3nnc(C(F)(F)c4ccc5ncccc5c4)n3n2)ccn1 [Example 100, 6-{[6-(2-Ethynyl-pyridin-4-yl)-[1,2,4]triazolo[4,3-b]pyridazin-3-yl]-difluoro-methyl}-quinoline] | 5 | 140
CN1CCN(C(=O)c2ccc(-c3ccc4nnc(C(F)(F)c5ccc6occc6c5)n4n3)s2)CC1 [Example 102, {5-[3-(Benzofuran-5-yl-difluoro-methyl)-[1,2,4]triazolo[4,3-b]pyridazin-6-yl]-thiophen-2-yl}-(4-methyl-piperazin-1-yl)-methanone] | 3 | 79
c1csc(-c2ccc3nnc(Cc4ccc5occc5c4)n3n2)c1 [Example 35, 3-Benzofuran-5-ylmethyl-6-thiophen-2-yl-[1,2,4]triazolo[4,3-b]pyridazine] | 9 | 75
c1cnc2ccc(Cc3nnc4ccc(-c5ccncc5)nn34)cc2c1 [Example 6, 6-(6-Pyridin-4-yl-[1,2,4]triazolo[4,3-b]pyridazin-3-ylmethyl)-quinoline] | 8 | 112
O=c1ccc(-c2ccc3nnc(Cc4ccc5ncccc5c4)n3n2)c[nH]1 [Example 90, 5-(3-Quinolin-6-ylmethyl-[1,2,4]triazolo[4,3-b]pyridazin-6-yl)-1H-pyridin-2-one] | 3 | 540
FC(F)(c1ccc2ncccc2c1)c1nnc2ccc(-c3ccnc(Cl)c3)nn12 [Example 100b, 6-{[6-(2-Chloro-pyridin-4-yl)-[1,2,4]triazolo[4,3-b]pyridazin-3-yl]-difluoro-methyl}-quinoline] | 2 | 34
CCCn1cc(-c2ccc3nnc(Cc4ccc5ncccc5c4)n3n2)cn1 [Example 9, 6-[6-(1-Propyl-1H-pyrazol-4-yl)-[1,2,4]triazolo[4,3-b]pyridazin-3-ylmethyl]-quinoline] | 1.6 | 48
Nc1nc2ccc(Cc3nnc4ccc(-c5cccnc5)nn34)cc2s1 [Example 13, 6-(6-Pyridin-3-yl-[1,2,4]triazolo[4,3-b]pyridazin-3-ylmethyl)-benzothiazol-2-ylamine] | 15 | 215
c1cc(-c2ccc3nnc(Cc4ccc5c(c4)CCO5)n3n2)ccn1 [Example 7, 3-(2,3-Dihydro-benzofuran-5-ylmethyl)-6-pyridin-4-yl-[1,2,4]triazolo[4,3-b]pyridazine] | 111 | 2150
Nc1nc2ccc(Cc3nnc4ccc(-c5cccs5)nn34)cc2s1 [Example 38, 6-(6-Thiophen-2-yl-[1,2,4]triazolo[4,3-b]pyridazin-3-ylmethyl)-benzothiazol-2-ylamine] | 0.45 | 2
CN1CCN(C(=O)c2ccc(-c3ccc4nnc(Cc5ccc6ncccc6c5)n4n3)s2)CC1 [Example 47, (4-Methyl-piperazin-1-yl)-[5-(3-quinolin-6-ylmethyl-[1,2,4]triazolo[4,3-b]pyridazin-6-yl)-thiophen-yl]-methanone] | 0.4 | 1
Cn1cc(-c2ccc3nnc(Cc4ccc5nccnc5c4)n3n2)cn1 [Example 71, 6-[6-(1-Methyl-1H-pyrazol-4-yl)-[1,2,4]triazolo[4,3-b]pyridazin-3-ylmethyl]-quinoxaline] | 20 | 99
c1csc(-c2ccc3nnc(Cc4ccc5ncccc5c4)n3n2)c1 [Example 39, 6-(6-Thiophen-2-yl-[1,2,4]triazolo[4,3-b]pyridazin-3-ylmethyl)-quinoline] | 2 | 1
COc1ccc(-c2ccc3nnc(Cc4ccc5ncccc5c4)n3n2)cn1 [Example 89, 6-[6-(6-Methoxy-pyridin-3-yl)-[1,2,4]triazolo[4,3-b]pyridazin-3-ylmethyl]-quinoline] | 4 | 230
FC(F)(c1ccc2ncccc2c1)c1nnc2ccc(-c3cccnc3)nn12 [Example 59, 6-[Difluoro-(6-pyridin-3-yl-[1,2,4]triazolo[4,3-b]pyridazin-3-yl)-methyl]-quinoline] | 3 | 8
COc1ccc(Cn2cnc3ccc(Cc4nnc5ccc(-c6cccnc6)nn45)cc3c2=O)cc1 [Example 68, 3-(4-Methoxy-benzyl)-6-(6-pyridin-3-yl-[1,2,4]triazolo[4,3-b]pyridazin-3-ylmethyl)-3H quinazolin-4-one] | 2 | 30
N#Cc1ccc(-c2ccc3nnc(Cc4ccc5ncccc5c4)n3n2)cn1 [Example 96, 5-(3-Quinolin-6-ylmethyl-[1,2,4]triazolo[4,3-b]pyridazin-6-yl)-pyridine-2-carbonitrile] | 12 | 160
CN(C)c1nc2ccc(Cc3nnc4ccc(-c5cnn(C)c5)nn34)cc2s1 [Example 94, Dimethyl-{6-[6-(1-methyl-1H-pyrazol-4-yl)-[1,2,4]triazolo[4,3-b]pyridazin-3-ylmethyl]-benzothiazol-2-yl}-amine] | 30 | 640
c1cnc2ccc(Cc3nnc4ccc(-c5cncnc5)nn34)cc2c1 [Example 64, 6-(6-Pyrimidin-5-yl-[1,2,4]triazolo[4,3-b]pyridazin-3-ylmethyl)-quinoline] | 17 | 170
c1csc(-c2ccc3nnc(Cc4ccc5c(c4)OCO5)n3n2)c1 [Example 37, 3-Benzo[1,3]dioxol-5-ylmethyl-6-thiophen-2-yl-[1,2,4]triazolo[4,3-b]pyridazine] | 16 | 346
Nc1ccc(-c2ccc3nnc(Cc4ccc5ncccc5c4)n3n2)cn1 [Example 88, 5-(3-Quinolin-6-ylmethyl-[1,2,4]triazolo[4,3-b]pyridazin-6-yl)-pyridin-2-ylamine] | 2 | 50
CCCc1ncc(-c2ccc3nnc(Cc4ccc5ncccc5c4)n3n2)s1 [Example 20, 6-[6-(2-Propyl-thiazol-5-yl)-[1,2,4]triazolo[4,3-b]pyridazin-3-ylmethyl]-quinoline] | 1 | 7
